Results: patent US8278315B2, “Radiotherapy method using x-rays” (priority 2002, dated 2012)

Columns and labels:
[1] = system: neuroblastoma lines; experiment: nuclear chemotherapy: ^77BrdC on neuroblastoma lines; assay type: cell-based
Method: An investigation of a method called “nuclear chemotherapy” was done many years previously at Sloan-Kettering Research Institute in New York, by Dr. Chia-Gee Wang and Dr. Lawrence Helson. The research was done using ^77BrdC, where ^77Br (half-life at 57 hours) would undergo a K-capture and deliver 10^6 or more Gy at a small distance. The […] of BrdC to BrdU can be blocked by the non-toxic H4U and therefore excluding BrdC from being incorporated into the DNA pool. Certain transformed cells, on the other hand, would make use of a more primitive kinase to bypass the H4U blockage, and incorporate BrdC to form BrdU. The ^77Br was made by adding an a particle to ^75As in a facility in the U.K. ^77Br was obtained in liquid solution, and ^77BrdC was made. […] The Auger electrons from the ^77BrdU delivered such a high dose of the DNA duplex that no cellular repair was possible.

[2] = system: B-DNA; conditions: cited from earlier work
[3] = loss of UV absorbance at 260 nm after X-rays from a silver target; assay type: physicochemical; conditions: 20 μg/ml, per 100 Rads
From the text: The phenanthroline groups on Dichlorotris(1,10-phenanthroline) ruthenium (II) hydrate absorb in the UV region with a peak absorbance at or near 260 nm. Loss or damage to these groups can be estimated by determining the UV absorbance before and after treatment with X-rays generated by a silver target which is optimum for Ru. Over several experiments replicating treatments with 100 Rad or using increasing amounts of X-rays between 50 Rads and 1000 Rads a loss of UV absorbance at 260 nm of 0.5% to 1% per 100 Rads has been determined.

[4] = system: DOX-resistant cells; conditions: cited from earlier work
[5] = mouse studies, compared with DOX; cited from earlier work
[6] = DOX-treated patients; cited from earlier work

Compound: Nc1nc(=O)n(C2CC(O)C(CO)O2)cc1[77Br] (stereo not drawn) [^77BrdC]
- effect on sensitive tumor lines ([1]; sensitive lines, no immediate cell death): stopped mitosis
- sensitivity of neuroblastoma lines ([1]; ten neuroblastoma lines tested, H4U blockage): two of the ten lines were sensitive

Compound: CS(C)=O.CS(C)=O.CS(C)=O.CS(C)=O.[Cl][Ru][Cl] [cis-form of [Cl2(Me2SO)4Ru], [Cl2(Me2SO)4Ru]]
- effect on conformation of B-DNA [2]: does not significantly affect the conformation of B-DNA
- effect on thermal stability of B-DNA [2]: increases its thermal stability

Compound: O.[Cl][Ru][Cl].c1cnc2c(c1)ccc1cccnc12.c1cnc2c(c1)ccc1cccnc12.c1cnc2c(c1)ccc1cccnc12 [Dichlorotris(1,10-phenanthroline) ruthenium (II) hydrate]
- phenanthroline groups damaged [3]: ~10^14 per ml

Compound: [Cl2(Me2SO)4Ru] [trans-form]
- rate of DNA binding ([2]; compared with the cis-form): binds more rapidly

Compound: C[C@@H]1O[C@@H](O[C@H]2C[C@](O)(C(=O)CO)Cc3c(O)c4c(c(O)c32)C(=O)c2ccccc2C4=O)[C@H](I)[C@H](O)[C@H]1O [ANN, annamycin]
- cross resistance [4]: lack of cross resistance
- cardiotoxicity [5]: less cardiotoxic

Compound: COc1cccc2c1C(=O)c1c(O)c3c(c(O)c1C2=O)C[C@@](O)(C(=O)CO)C[C@@H]3O[C@H]1C[C@H](N)[C@H](O)[C@H](C)O1 [DOX, doxorubicin]
- frequency of relapse [6]: ≤ 50%
